The text below walks through data of patent US20140135327A1, “N- (2 -AMINOPHENYL) BENZAMIDE DERIVATIVES AS HISTONE DEACETYLASE INHIBITORS” (CANCER RESEARCH TECHNOLOGY LIMITED, priority 2011, published 2014).

What all share (format): biochemical
Assay [1] addresses T1, HDAC 6 (Homo sapiens, UniProt Q9UBN7).
T1 sequence (Q9UBN7 1-1215): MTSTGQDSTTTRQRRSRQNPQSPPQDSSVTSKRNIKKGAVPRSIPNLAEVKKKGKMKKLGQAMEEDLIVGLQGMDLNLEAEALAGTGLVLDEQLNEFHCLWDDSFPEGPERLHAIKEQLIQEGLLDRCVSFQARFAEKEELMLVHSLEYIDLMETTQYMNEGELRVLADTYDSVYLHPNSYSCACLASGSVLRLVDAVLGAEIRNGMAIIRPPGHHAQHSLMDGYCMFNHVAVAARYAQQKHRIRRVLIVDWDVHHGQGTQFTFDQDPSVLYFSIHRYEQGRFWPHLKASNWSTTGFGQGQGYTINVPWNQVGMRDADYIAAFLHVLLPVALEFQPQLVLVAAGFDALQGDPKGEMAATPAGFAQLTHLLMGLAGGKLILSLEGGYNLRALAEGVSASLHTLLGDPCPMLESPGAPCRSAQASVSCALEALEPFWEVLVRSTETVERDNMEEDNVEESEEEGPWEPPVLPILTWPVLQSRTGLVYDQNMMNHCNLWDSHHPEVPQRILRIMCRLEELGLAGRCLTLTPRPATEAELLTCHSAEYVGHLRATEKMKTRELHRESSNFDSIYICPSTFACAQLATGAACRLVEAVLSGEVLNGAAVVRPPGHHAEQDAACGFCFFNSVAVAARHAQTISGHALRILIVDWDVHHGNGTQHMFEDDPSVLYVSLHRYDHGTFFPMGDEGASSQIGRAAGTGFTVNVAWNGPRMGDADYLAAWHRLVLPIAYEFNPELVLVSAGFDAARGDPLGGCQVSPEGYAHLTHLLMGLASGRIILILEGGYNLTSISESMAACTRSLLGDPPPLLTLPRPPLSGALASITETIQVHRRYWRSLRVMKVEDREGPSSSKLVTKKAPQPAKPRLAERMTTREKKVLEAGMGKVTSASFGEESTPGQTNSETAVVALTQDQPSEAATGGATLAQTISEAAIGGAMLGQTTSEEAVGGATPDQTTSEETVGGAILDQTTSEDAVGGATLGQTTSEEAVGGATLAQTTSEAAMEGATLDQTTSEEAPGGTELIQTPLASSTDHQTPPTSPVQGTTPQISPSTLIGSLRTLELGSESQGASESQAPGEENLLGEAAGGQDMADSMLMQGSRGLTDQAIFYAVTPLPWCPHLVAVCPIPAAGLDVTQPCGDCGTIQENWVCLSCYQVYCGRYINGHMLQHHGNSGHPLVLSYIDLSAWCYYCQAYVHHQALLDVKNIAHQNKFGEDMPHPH
As to the kind of experiment: Fluorescence-based HDAC isoform assay with electrophoretic separation, HDAC 6. Conditions: isolated 6×His-tagged isoform, 1 μM FAM-labeled acetylated peptide, 17 h at 25° C. As to the method:
(§1) The inhibitory effects of the compounds of Examples 7 and 9 above on HDAC activity were determined using a fluorescence-based assay with electrophoretic separation of substrate and product carried out using a microfluidic system followed by quantitation of fluorescence intensity in the substrate and product peaks.
(§2) The assays were performed using isolated HDAC isoforms that had been expressed as 6×His-tagged fusion proteins in a baculovirus expression system in Sf9 cells. HDACs 1, 2, 3, 6, and 8 were expressed as full length fusion proteins. For HDAC-4 and 7 only catalytic domains were expressed (HDAC-4 CAT and HDAC-7 CAT). The HDAC10 fusion protein was expressed as a carboxy-terminal deletion of 38 amino acids (residues 632-669). HDAC3 was coexpressed with a fragment of the SMRT gene (residues 395-489) to generate enzymatically active protein. Purified proteins were incubated with 1 μM carboxyfluorescein (FAM)-labeled acetylated peptide substrate and test compound for 17 h at 25° C. in HDAC assay buffer containing 100 mM HEPES (pH 7.5), 25 mM KCl, 0.1% BSA, and 0.01% Triton X-100. […] Substrate and product were separated electrophoretically using a Caliper LabChip 3000 system with blue laser excitation and green fluorescence detection (CCD2). The fluorescence intensity in the substrate and product peaks was determined using the Well Analyzer software on the Caliper system. […]

The next assay addresses T2, HDAC 7-CAT (Homo sapiens, UniProt Q8WUI4).
T2 construct: For HDAC-4 and 7 only catalytic domains were expressed (HDAC-4 CAT and HDAC-7 CAT); 6xHis; made in house; host or cells: Sf9 cells (baculovirus)
T2 sequence (Q8WUI4 512-865 limits assumed): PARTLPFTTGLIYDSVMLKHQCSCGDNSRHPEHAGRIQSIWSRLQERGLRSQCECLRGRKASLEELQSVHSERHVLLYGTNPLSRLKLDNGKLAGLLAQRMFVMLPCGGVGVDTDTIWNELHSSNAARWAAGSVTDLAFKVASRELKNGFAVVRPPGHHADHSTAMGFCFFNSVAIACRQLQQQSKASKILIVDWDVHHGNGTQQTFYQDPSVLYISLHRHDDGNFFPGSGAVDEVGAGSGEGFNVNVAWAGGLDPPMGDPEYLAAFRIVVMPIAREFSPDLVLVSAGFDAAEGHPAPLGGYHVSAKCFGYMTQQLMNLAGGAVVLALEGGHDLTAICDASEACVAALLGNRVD
As to the kind of experiment: Fluorescence-based HDAC isoform assay with electrophoretic separation, HDAC 7-CAT. Conditions: catalytic domain only, 1 μM FAM-labeled acetylated peptide, 17 h at 25° C. The method, then: as §1, §2

Assay [2] addresses T1, HDAC 6. The assay is described as follows: Caliper HDAC inhibitor profiling assay (microfluidic mobility-shift), HDAC 6. Conditions: 1 hour at room temperature, read-out: IC50 (μM) HDAC6. The method, then: The activity of the compounds of the invention against HDAC 3 (Class I) and HDAC 6 (Class II) can be determined using the Caliper Life Sciences HDAC inhibitor profiling assay, which utilises microfluidic mobility-shift detection.
Reaction buffer: 25 mM Tris/Cl, pH 8.0, 137 mM NaCl, 2.7 mM KCl, 1 mM MgCl2, 0.1 mg/ml BSA (fatty acid free).
Stop Buffer: 100 mM HEPES, pH 7.5, 10 mM EDTA, 0.04% Brij-35, 0.25% CR-3, and 2.5 μM Trichostatin A.
Stopped reactions were assembled in microtiter plate wells by adding 1 μL of the inhibitor compound in DMSO, 15 μL 2× Enzyme, and 15 μL 2× peptide. The reactions were incubated for 1 hour at room temperature, stopped with the addition of 45 μL Stop Solution, and read on the LabChip EZ Reader®. The curves were fit with sigmoidal dose response algorithm using GraphPad Prism.

`C=C1CN(Cc2ccc(C(=O)Nc3ccccc3N)cc2)C(=O)c2ccccc21` [Example 7, N-(2-Aminophenyl)-4-[(4-methylene-1-oxo-3,4-dihydroisoquino-2(1H)-yl)methyl]benzamide]: the figures for the IC50 on HDAC 6 [1], against HDAC 7-CAT and at HDAC 6 [2] were above 30 µM, 7.53 µM and above 10 µM, respectively.
Take `C=C1CN(Cc2ccc(C(=O)Nc3ccccc3N)cc2)C(CC(=O)O)c2ccccc21` (stereo not drawn) [Example 9, [2-(4-{[(2-Aminophenyl)amino]carbonyl}benzyl)-4-methylene-1,2,3,4-tetra hydroisoquinolin-1-yl]acetic acid]: the IC50 (usually the midpoint of a concentration-inhibition curve) on HDAC 6 [1] is above 30 µM; against HDAC 7-CAT, above 30 µM; at HDAC 6 [2], above 10 µM.
